Experimental data: PubChem BioAssay AID1963965 (Molecular Pharmacology Branch, DTP, NCI, 2024)

System: 996289-038-R-J1-PDC spheroid viability
Assay: Anticancer human tumor 996289-038-R-J1-PDC patient-derived colon adenocarcinoma cell line growth inhibition [PI3K]
Conditions: spheroids with HUVEC and MSC; for IC50: curve of first compound; for viability, T/C: stronger effect = lower value
Method in brief: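 Complex 3D spheroids (cancer cells + endothelial HUVEC + mesenchymal stem cells); drug pairs of targeted agent x inavolisib/alpelisib/duvelisib/copanlisib; half-log series from ~Cmax, max 10 microM if Cmax unknown; endpoint viability.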

[1] = second compound 0.0316 µM, first compound 0.0316 µM
[2] = second compound 0.0316 µM, first compound 0.1 µM
[3] = second compound 0.0316 µM, first compound 0.316 µM
[4] = second compound 0.0316 µM, first compound 1 µM
[5] = second compound 0.0316 µM, first compound 3.16 µM
[6] = second compound 0.0316 µM, first compound 10 µM
[7] = second compound 0.1 µM, first compound 0.0316 µM
[8] = second compound 0.1 µM, first compound 0.1 µM
[9] = second compound 0.1 µM, first compound 0.316 µM
[10] = second compound 0.1 µM, first compound 1 µM
[11] = second compound 0.1 µM, first compound 3.16 µM
[12] = second compound 0.1 µM, first compound 10 µM
[13] = second compound 0.316 µM, first compound 0.0316 µM
[14] = second compound 0.316 µM, first compound 0.1 µM
[15] = second compound 0.316 µM, first compound 0.316 µM
[16] = second compound 0.316 µM, first compound 1 µM
[17] = second compound 0.316 µM, first compound 3.16 µM
[18] = second compound 0.316 µM, first compound 10 µM
[19] = second compound 1 µM, first compound 0.0316 µM
[20] = second compound 1 µM, first compound 0.1 µM
[21] = second compound 1 µM, first compound 0.316 µM
[22] = second compound 1 µM, first compound 1 µM
[23] = second compound 1 µM, first compound 3.16 µM
[24] = second compound 1 µM, first compound 10 µM
[25] = second compound 3.16 µM, first compound 0.0316 µM
[26] = second compound 3.16 µM, first compound 0.1 µM
[27] = second compound 3.16 µM, first compound 0.316 µM
[28] = second compound 3.16 µM, first compound 1 µM
[29] = second compound 3.16 µM, first compound 3.16 µM
[30] = second compound 3.16 µM, first compound 10 µM
[31] = second compound 10 µM, first compound 0.0316 µM
[32] = second compound 10 µM, first compound 0.1 µM
[33] = second compound 10 µM, first compound 0.316 µM
[34] = second compound 10 µM, first compound 1 µM
[35] = second compound 10 µM, first compound 3.16 µM
[36] = second compound 10 µM, first compound 10 µM
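Note: spheroids exposed to compounds for seven days before viability read.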
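Throughout, for viability, T/C: luminescence used as a proxy for viable cell amount; percent viability relative to DMSO vehicle control as 100%.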

Compound: CCCS(=O)(=O)Nc1ccc(F)c(C(=O)c2c[nH]c3ncc(-c4ccc(Cl)cc4)cc23)c1F + CC(Nc1ncnc2nc[nH]c12)c1cc2cccc(Cl)c2c(=O)n1-c1ccccc1
- IC50 (second compound 0.0316 µM): 6.51 µM
- IC50 (second compound 0.1 µM): 6.87 µM
- IC50 (second compound 0.316 µM): 6.7 µM
- IC50 (second compound 1 µM): 6.63 µM
- IC50 (second compound 3.16 µM): 6.55 µM
- IC50 (second compound 10 µM): 5.93 µM
- viability, T/C [1]: 99.5%
- viability, T/C [2]: 98.8%
- viability, T/C [3]: 103%
- viability, T/C [4]: 97.1%
- viability, T/C [5]: 98.6%
- viability, T/C [6]: 21.1%
- viability, T/C [7]: 103%
- viability, T/C [8]: 96.8%
- viability, T/C [9]: 119%
- viability, T/C [10]: 107%
- viability, T/C [11]: 111%
- viability, T/C [12]: 22.2%
- viability, T/C [13]: 89.8%
- viability, T/C [14]: 103%
- viability, T/C [15]: 107%
- viability, T/C [16]: 106%
- viability, T/C [17]: 99.7%
- viability, T/C [18]: 23.5%
- viability, T/C [19]: 105%
- viability, T/C [20]: 98.2%
- viability, T/C [21]: 96.9%
- viability, T/C [22]: 89%
- viability, T/C [23]: 102%
- viability, T/C [24]: 23.2%
- viability, T/C [25]: 94.9%
- viability, T/C [26]: 95.4%
- viability, T/C [27]: 93.2%
- viability, T/C [28]: 85.6%
- viability, T/C [29]: 101%
- viability, T/C [30]: 24.2%
- viability, T/C [31]: 87%
- viability, T/C [32]: 87.8%
- viability, T/C [33]: 88.3%
- viability, T/C [34]: 82.5%
- viability, T/C [35]: 99.6%
- viability, T/C [36]: 17.5%

Compound: CCCS(=O)(=O)Nc1ccc(F)c(C(=O)c2c[nH]c3ncc(-c4ccc(Cl)cc4)cc23)c1F + Cc1nc(NC(=O)N2CCCC2C(N)=O)sc1-c1ccnc(C(C)(C)C(F)(F)F)c1
- IC50 (second compound 0.0316 µM): 5.9 µM
- IC50 (second compound 0.1 µM): 5.51 µM
- IC50 (second compound 0.316 µM): 5.54 µM
- IC50 (second compound 1 µM): 3.45 µM
- IC50 (second compound 3.16 µM): 1.52 µM
- IC50 (second compound 10 µM): 0.0316 µM
- viability, T/C [1]: 90.2%
- viability, T/C [2]: 86.1%
- viability, T/C [3]: 108%
- viability, T/C [4]: 96.1%
- viability, T/C [5]: 82.6%
- viability, T/C [6]: 22%
- viability, T/C [7]: 95.9%
- viability, T/C [8]: 87.7%
- viability, T/C [9]: 91.6%
- viability, T/C [10]: 88.3%
- viability, T/C [11]: 79.5%
- viability, T/C [12]: 18.5%
- viability, T/C [13]: 84.2%
- viability, T/C [14]: 84.8%
- viability, T/C [15]: 80.2%
- viability, T/C [16]: 81.3%
- viability, T/C [17]: 70.5%
- viability, T/C [18]: 28.3%
- viability, T/C [19]: 70.4%
- viability, T/C [20]: 79.6%
- viability, T/C [21]: 70.5%
- viability, T/C [22]: 66.7%
- viability, T/C [23]: 53.1%
- viability, T/C [24]: 17%
- viability, T/C [25]: 61.1%
- viability, T/C [26]: 63.5%
- viability, T/C [27]: 57.3%
- viability, T/C [28]: 54.1%
- viability, T/C [29]: 43.2%
- viability, T/C [30]: 15.4%
- viability, T/C [31]: 44%
- viability, T/C [32]: 44.8%
- viability, T/C [33]: 43.3%
- viability, T/C [34]: 53.2%
- viability, T/C [35]: 31.9%
- viability, T/C [36]: 11.5%
